We go through 39 molecules from ChEMBL document CHEMBL3632507, “Discovery of novel VEGFR-2 inhibitors. Part 5: Exploration of diverse hinge-binding fragments via core-refining approach” (Eur J Med Chem, 2015).

The nature of experiment [1]: Antiproliferative activity against human SMMC7721 cells assessed as cell growth inhibition after 48 hrs by MTT assay. The conditions noted are these: SMMC-7721, 48 h. (In general: Tetrazolium assays rely on reduction of a dye to a coloured formazan, in cell work by metabolically active cells.)
Another experiment relates to A549. In words: Antiproliferative activity against human A549 cells assessed as cell growth inhibition after 48 hrs by MTT assay. The conditions noted are these: A549, 48 h.
The target in experiment [2] is Vascular endothelial growth factor receptor 2 (Homo sapiens, UniProt P35968). In words: Inhibition of VEGFR-2 (unknown origin) after 1 hr by ADP-Glo assay. For orientation: In ADP-Glo the light output rises with the ADP produced.
Vascular endothelial growth factor receptor 2, sequence (P35968 whole entry): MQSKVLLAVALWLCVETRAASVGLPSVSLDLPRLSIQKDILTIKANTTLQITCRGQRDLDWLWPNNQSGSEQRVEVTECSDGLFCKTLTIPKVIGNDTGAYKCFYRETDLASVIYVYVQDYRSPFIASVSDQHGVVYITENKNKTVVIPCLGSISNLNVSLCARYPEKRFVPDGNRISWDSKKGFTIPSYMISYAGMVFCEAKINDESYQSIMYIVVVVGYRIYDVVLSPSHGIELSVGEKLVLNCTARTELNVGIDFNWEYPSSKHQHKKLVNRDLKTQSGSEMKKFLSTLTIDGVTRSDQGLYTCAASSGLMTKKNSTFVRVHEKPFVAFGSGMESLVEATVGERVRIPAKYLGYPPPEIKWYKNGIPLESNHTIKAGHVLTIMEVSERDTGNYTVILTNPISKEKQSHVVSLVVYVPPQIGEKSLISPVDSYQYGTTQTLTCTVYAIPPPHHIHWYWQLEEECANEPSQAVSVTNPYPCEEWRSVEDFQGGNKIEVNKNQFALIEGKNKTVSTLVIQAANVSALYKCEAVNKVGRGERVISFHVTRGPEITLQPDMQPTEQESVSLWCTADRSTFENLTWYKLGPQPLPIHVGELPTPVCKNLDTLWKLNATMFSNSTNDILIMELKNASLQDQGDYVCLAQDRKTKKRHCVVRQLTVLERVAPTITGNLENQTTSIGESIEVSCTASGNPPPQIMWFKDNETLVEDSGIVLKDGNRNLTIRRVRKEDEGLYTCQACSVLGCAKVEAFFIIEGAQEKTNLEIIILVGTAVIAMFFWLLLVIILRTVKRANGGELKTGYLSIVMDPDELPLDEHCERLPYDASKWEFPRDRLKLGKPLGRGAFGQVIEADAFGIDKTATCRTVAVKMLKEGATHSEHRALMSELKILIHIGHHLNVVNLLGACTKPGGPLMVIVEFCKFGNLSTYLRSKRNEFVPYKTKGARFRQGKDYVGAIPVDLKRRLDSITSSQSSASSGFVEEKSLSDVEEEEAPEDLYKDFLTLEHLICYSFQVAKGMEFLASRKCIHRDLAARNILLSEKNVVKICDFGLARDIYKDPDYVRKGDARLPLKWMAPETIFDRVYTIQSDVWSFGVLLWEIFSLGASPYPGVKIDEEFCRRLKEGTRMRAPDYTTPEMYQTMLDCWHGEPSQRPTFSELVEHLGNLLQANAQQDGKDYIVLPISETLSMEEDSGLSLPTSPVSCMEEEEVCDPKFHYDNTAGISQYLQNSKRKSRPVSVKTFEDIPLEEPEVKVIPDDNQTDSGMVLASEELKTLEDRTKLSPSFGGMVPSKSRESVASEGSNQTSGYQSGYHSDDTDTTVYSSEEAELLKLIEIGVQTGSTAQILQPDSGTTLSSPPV

Regarding `COc1ccc(C(=O)OCCN(C)C)cc1NC(=O)Nc1cc(-c2cccnc2)cc(C(F)(F)F)c1`, the results for the IC50 (in experiment [1]; in the experiment on A549) were 860 nM and 2490 nM, respectively.
In the case of `COc1ccc(C(=O)OCCN(C)C)cc1NC(=O)Nc1cc(-c2cncnc2)cc(C(F)(F)F)c1`, the IC50 in experiment [2] is greater than 500 µM; in experiment [1], 1390 nM; with A549, 1660 nM.
On to `COc1ccc(C(=O)OCCN(C)C)cc1NC(=O)Nc1cc(-c2cccnc2)ccc1OC(F)(F)F`, for which the IC50 in experiment [1] turned out to be 1380 nM; in the experiment with A549 it was 1010 nM.
The corresponding values for `COc1ccc(C(=O)OCCN(C)C)cc1NC(=O)Nc1cc(-c2ccc3[nH]ccc3c2)ccc1OC(F)(F)F` are 1760 nM and 950 nM.
For `COc1ccc(-c2ccc(OC(F)(F)F)c(NC(=O)Nc3cc(C(=O)OCCN(C)C)ccc3OC)c2)cn1`, in that order: 2010 nM and 910 nM.
Consider `COc1ccc(C(=O)OCCN(C)C)cc1NC(=O)Nc1cc(-c2cncnc2)ccc1OC(F)(F)F`, for which the IC50 worked out at 6150 nM in experiment [1] and 14700 nM in the experiment on A549.
As for `CCN(CC)CCOC(=O)c1ccc(OC)c(NC(=O)Nc2cc(-c3ccc4[nH]ccc4c3)ccc2OC(F)(F)F)c1`, the half-maximal inhibitory concentration (IC50) in experiment [1] is 570 nM; in the experiment with A549 it was 990 nM.
The corresponding values for `CCN(CC)CCOC(=O)c1ccc(OC)c(NC(=O)Nc2cc(-c3ccc(OC)nc3)ccc2OC(F)(F)F)c1` are 640 nM and 1730 nM.
On to `CCN(CC)CCOC(=O)c1ccc(OC)c(NC(=O)Nc2cc(-c3cncnc3)ccc2OC(F)(F)F)c1`, for which the IC50 in experiment [2] was greater than 500 µM; in experiment [1], 3430 nM; in the experiment on A549, greater than 500000 nM.
For the molecule `COc1ccc(C(=O)OCCN(C(C)C)C(C)C)cc1NC(=O)Nc1cc(-c2cccnc2)cc(C(F)(F)F)c1`, the IC50 in experiment [1] came out at 730 nM; in the experiment on A549 it was 1910 nM.
In the case of `COc1ccc(C(=O)OCCN(C(C)C)C(C)C)cc1NC(=O)Nc1cc(-c2ccc3[nH]ccc3c2)cc(C(F)(F)F)c1`, the figures for the 50% inhibitory concentration (IC50) (in experiment [2]; in experiment [1]; in the experiment on A549) were greater than 500 µM, 410 nM and 1570 nM, respectively.
For `COc1ccc(C(=O)OCCN(C(C)C)C(C)C)cc1NC(=O)Nc1cc(-c2ccc3[nH]ccc3c2)ccc1OC(F)(F)F`, in that order: greater than 500 µM, 360 nM and 2060 nM.
For `COc1ccc(C(=O)OCCN(C(C)C)C(C)C)cc1NC(=O)Nc1cc(-c2cncnc2)ccc1OC(F)(F)F`, in that order: greater than 500 µM, 920 nM and 3970 nM.
Turning to `COc1ccc(C(=O)OCCN(C(C)C)C(C)C)cc1NC(=O)Nc1cc(-c2cn[nH]c2)ccc1OC(F)(F)F`, the half-maximal inhibitory concentration (IC50) in experiment [2] is greater than 500 µM; in experiment [1], 1230 nM; in the experiment with A549, 1520 nM.
For `COc1ccc(C(=O)OCCN(C(C)C)C(C)C)cc1NC(=O)Nc1cc(-c2cnn(C)c2)ccc1OC(F)(F)F`, in that order: greater than 500 µM, greater than 500000 nM and greater than 500000 nM.
For `COc1ccc(C(=O)OCCN2CCOCC2)cc1NC(=O)Nc1cc(-c2cccnc2)cc(C(F)(F)F)c1`, in that order: greater than 500 µM, 11100 nM and greater than 500000 nM.
On to `COc1ccc(C(=O)OCCN2CCOCC2)cc1NC(=O)Nc1cc(-c2ccc3[nH]ccc3c2)cc(C(F)(F)F)c1`, for which the concentration for half-maximal inhibition (IC50) is greater than 500 µM in experiment [2], 1770 nM in experiment [1] and 1240 nM in the experiment with A549.
On to `COc1ccc(C(=O)OCCN2CCOCC2)cc1NC(=O)Nc1cc(-c2cncnc2)ccc1OC(F)(F)F`, for which the 50% inhibitory concentration (IC50) in experiment [1] stood at 10800 nM; in the experiment on A549, 1280 nM.
The corresponding values for `COc1ccc(C(=O)OCCN2CCOCC2)cc1NC(=O)Nc1cc(-c2cn[nH]c2)ccc1OC(F)(F)F` are 2550 nM and greater than 500000 nM.
The corresponding values for `Nc1n[nH]c2cccc(-c3cccc(NC(=O)Nc4ccccc4F)c3)c12` are 2360 nM and 1170 nM.
Regarding `Nc1n[nH]c2cccc(-c3cccc(NC(=O)Nc4cccc(F)c4)c3)c12`, the IC50 in experiment [1] was determined as 1240 nM; with A549, 1360 nM.
Turning to `Nc1n[nH]c2cccc(-c3cccc(NC(=O)Nc4ccc(F)cc4)c3)c12`, the IC50 (in experiment [1]; in the experiment with A549) was greater than 500000 nM each time.
As to `Nc1n[nH]c2cccc(-c3cccc(NC(=O)Nc4ccccc4Cl)c3)c12`, the figures for the half-maximal inhibitory concentration (IC50) (in experiment [1]; in the experiment with A549) were greater than 500000 nM and 15800 nM, respectively.
`Nc1n[nH]c2cccc(-c3cccc(NC(=O)Nc4cccc(Cl)c4)c3)c12`: the IC50 in experiment [1] came out at 1830 nM; with A549 it was 1720 nM.
Consider `Cc1ccc(NC(=O)Nc2cccc(-c3cccc4[nH]nc(N)c34)c2)cc1`, for which the figures for the IC50 (in experiment [1]; in the experiment with A549) were 4450 nM and 1660 nM, respectively.
For the molecule `CC(C)c1cccc(NC(=O)Nc2cccc(-c3cccc4[nH]nc(N)c34)c2)c1`, the IC50 in experiment [1] was found to be 280 nM; with A549, 1420 nM.
The corresponding values for `Nc1n[nH]c2cccc(-c3cccc(NC(=O)Nc4cccc(C(F)(F)F)c4)c3)c12` are 1410 nM and 1950 nM.
For `COc1cccc(NC(=O)Nc2cccc(-c3cccc4[nH]nc(N)c34)c2)c1`, in that order: 2860 nM and 2490 nM.
In the case of `Cc1cccc(C)c1NC(=O)Nc1cccc(-c2cccc3[nH]nc(N)c23)c1`, the IC50 in experiment [2] was greater than 0.5 µM; in experiment [1] it was greater than 500000 nM; in the experiment with A549, 229000 nM.
For `Nc1n[nH]c2cccc(-c3cccc(NC(=O)Nc4ccc(F)c(F)c4)c3)c12`, in that order: greater than 0.5 µM, 5880 nM and 3040 nM.
In the case of `Nc1n[nH]c2cccc(-c3cccc(NC(=O)Nc4ccc(Cl)cc4Cl)c3)c12`, the IC50 in experiment [1] was 1900 nM; in the experiment on A549, greater than 500000 nM.
The corresponding values for `Nc1n[nH]c2cccc(-c3cccc(NC(=O)Nc4cc(C(F)(F)F)cc(C(F)(F)F)c4)c3)c12` are 3540 nM and 1510 nM.
Consider `Cc1ccc(NC(=O)Nc2cccc(-c3cccc4[nH]nc(N)c34)c2)cc1Cl`, for which the IC50 in experiment [1] turned out to be 510 nM; in the experiment with A549, 1750 nM.
For `Nc1n[nH]c2cccc(-c3cccc(NC(=O)Nc4ccc(Cl)c(C(F)(F)F)c4)c3)c12`, in that order: 1150 nM and 3410 nM.
As to `Nc1n[nH]c2cccc(-c3cccc(NC(=O)Nc4nccs4)c3)c12`, the concentration for half-maximal inhibition (IC50) was greater than 0.5 µM in experiment [2], 550 nM in experiment [1] and greater than 500000 nM in the experiment on A549.
Regarding `Nc1n[nH]c2cccc(-c3ccc(NC(=O)Nc4ccc5c(c4)OCO5)cc3)c12`, the results for the IC50 (in experiment [1]; in the experiment with A549) were 530 nM and 5230 nM, respectively.
As for `Cc1ccnc(NC(=O)Nc2ccc(-c3cccc4[nH]nc(N)c34)cc2)c1`, the figures for the IC50 (in experiment [2]; in experiment [1]; in the experiment on A549) were greater than 0.5 µM, 430 nM and 1160 nM, respectively.
As to `CN(C)CCOc1ccc(NC(=O)Nc2ccc(-c3cccc4[nH]nc(N)c34)cc2)cc1F`, the IC50 in experiment [1] is 600 nM; with A549 it was greater than 500000 nM.
In the case of `CNC(=O)c1cc(Oc2ccc(NC(=O)Nc3ccc(Cl)c(C(F)(F)F)c3)cc2)ccn1` [SORAFENIB], the figures for the half-inhibitory concentration (IC50) (in experiment [1]; with A549) were 650 nM and 1450 nM, respectively.

The IC50 is the midpoint of a concentration-inhibition curve.
